Experimental data from patent US20240158393A1, “PYRIDONE COMPOUNDS AND METHODS OF USE” (Exelixis, Inc., priority 2021, published 2024).

Tests used:
[1] = biological target: T1, Human KDR (Homo sapiens, UniProt P35968); test: Human KDR kinase assay (33P radiometric / HTRF KinEase); format: biochemical; conditions: protocols of Examples B-1 and/or B-2
T1 construct: Human KDR (residues K790-V1356, 55 nM); purchased Eurofins Pharma Discovery Services UK Limited (KinaseProfiler, B-1) and/or CarnaBio (B-2)
T1 sequence (P35968 790-1356): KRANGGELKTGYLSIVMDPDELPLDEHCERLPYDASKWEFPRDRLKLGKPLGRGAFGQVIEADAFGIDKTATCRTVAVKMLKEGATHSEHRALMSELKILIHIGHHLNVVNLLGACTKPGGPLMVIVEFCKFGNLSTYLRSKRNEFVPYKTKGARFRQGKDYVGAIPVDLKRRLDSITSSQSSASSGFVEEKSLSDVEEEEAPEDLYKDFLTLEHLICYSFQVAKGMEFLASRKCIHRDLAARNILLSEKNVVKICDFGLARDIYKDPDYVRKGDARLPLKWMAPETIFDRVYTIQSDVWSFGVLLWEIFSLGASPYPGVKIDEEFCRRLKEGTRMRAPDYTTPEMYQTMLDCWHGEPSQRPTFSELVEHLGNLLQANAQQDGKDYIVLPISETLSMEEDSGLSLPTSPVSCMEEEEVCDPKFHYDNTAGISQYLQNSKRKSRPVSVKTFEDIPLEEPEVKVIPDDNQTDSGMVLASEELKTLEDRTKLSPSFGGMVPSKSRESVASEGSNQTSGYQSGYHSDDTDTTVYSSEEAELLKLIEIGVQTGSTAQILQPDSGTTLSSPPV
How it was run: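 Radiometric: KDR K790-V1356 (55 nM), MOPS pH 7.0, myelin basic protein, 10 μM [γ-33P]ATP, 40 min at room temperature, filter-bound 33P counted; nine half-log doses, top 1 μM. HTRF: KDR 790-1356, 1 μM biotinylated peptide, ATP at Km (4.0 μM), 40 min, 10 doses. IC50 from logistic fits.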

[2] = biological target: T2, Human Axl (Homo sapiens, UniProt P30530); test: Human AXL kinase assay (33P radiometric / HTRF KinEase); format: biochemical; conditions: protocols of Examples A-1 and/or A-2
T2 construct: Human AXL (residues 464-885)
T2 sequence (P30530 1-894 Q764R): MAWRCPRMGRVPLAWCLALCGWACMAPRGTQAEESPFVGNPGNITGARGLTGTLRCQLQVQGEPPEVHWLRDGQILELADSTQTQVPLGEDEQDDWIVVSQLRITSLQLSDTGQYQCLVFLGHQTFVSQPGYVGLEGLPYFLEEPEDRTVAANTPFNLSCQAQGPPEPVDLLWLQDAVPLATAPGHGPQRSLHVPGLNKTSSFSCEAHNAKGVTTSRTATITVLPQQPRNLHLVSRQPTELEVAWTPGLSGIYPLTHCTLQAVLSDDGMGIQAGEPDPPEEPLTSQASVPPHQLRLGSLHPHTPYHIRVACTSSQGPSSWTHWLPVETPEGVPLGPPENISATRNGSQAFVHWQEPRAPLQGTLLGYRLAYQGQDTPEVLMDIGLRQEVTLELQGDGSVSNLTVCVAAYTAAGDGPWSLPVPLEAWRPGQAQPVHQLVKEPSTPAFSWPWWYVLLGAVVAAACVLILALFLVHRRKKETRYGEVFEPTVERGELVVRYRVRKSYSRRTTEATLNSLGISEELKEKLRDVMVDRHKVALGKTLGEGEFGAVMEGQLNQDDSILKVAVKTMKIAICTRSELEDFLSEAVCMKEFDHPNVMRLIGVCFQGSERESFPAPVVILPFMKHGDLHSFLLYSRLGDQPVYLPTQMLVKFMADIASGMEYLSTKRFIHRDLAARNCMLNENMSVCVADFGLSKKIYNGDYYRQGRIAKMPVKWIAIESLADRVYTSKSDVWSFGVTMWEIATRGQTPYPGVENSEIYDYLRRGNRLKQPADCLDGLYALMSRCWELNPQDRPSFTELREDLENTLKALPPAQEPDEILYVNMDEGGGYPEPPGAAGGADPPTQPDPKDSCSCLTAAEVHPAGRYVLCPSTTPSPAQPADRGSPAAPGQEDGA
Protocol: Kinase activity and compound inhibition were investigated using the ^33P-Phosphoryl transfer radiometric kinase assay, performed using the KinaseProfiler™ service of Eurofins Pharma Discovery Services UK Limited. Dose-response experiments were performed using nine compound concentrations in a 96-well microtiter plate. For each assay, all compounds were prepared to a 50× final assay concentration (50 μM) in 100% DMSO, then diluted in a half-log series, with the final top concentration at 1 μM. This working stock of the compound was added to the assay well as the first component in the reaction, followed by the remaining components as detailed in the following assay protocols below. The positive control wells (100% kinase activity) contain all components of the reaction including 2% DMSO (control for solvent effects), except the compound of interest. Blank wells contain all components of the reaction, with the reference inhibitor, staurosporine. This reference compound was used to abolish kinase activity and generated the 0% kinase activity base-line. IC50 values were calculated by nonlinear regression analysis using the sigmoidal dose-response (variable slope) curve fit on XLFit version 5.3 (ID Business Solutions).
Kinase activity and compound inhibition were also investigated using the HTRF® KinEase assay (Cisbio Cat #62TKOPEB) per manufacturer's instructions. In short, compounds were delivered in 300 nL volumes at 10 different concentrations in DMSO (3% final) to empty 384-well assay plates (Corning cat #3824). A mixture of enzyme, 1 μM biotinylated peptide substrate, and buffer in 10 μL volume was added. The assay was started upon the addition of ATP (at Km). The 10 μL reaction was incubated at room temperature. The reaction was stopped upon the addition of detection buffer containing streptavidin-XL665 (5 μL) and TK antibody-Eu3+(5 μL). After a 60 min incubation at room temperature, the fluorescence at 665 nm and 620 nm was read on an Envision microplate reader (Perkin Elmer).
Kinase activity normalized to DMSO (100% activity) and reference compound at 1 μM and (0% activity) was calculated using the fluorescence ratio […]. IC50 values were calculated by nonlinear regression analysis using a 4-parameter logistic curve fit in ActivityBase XE (IDBS).
Example A-1: Human Axl (residues H473-A894 with Q764R, 161 nM) was incubated with 8 mM MOPS pH 7.0, 0.2 mM EDTA, 250 μM KKSRGDYMTMQIG (SEQ ID NO:1), 10 mM magnesium acetate and 10 μM [γ-^33P-ATP]. The reaction was initiated by the addition of the Mg/ATP mix. After incubation for 40 minutes at room temperature, the reaction was stopped by the addition of phosphoric acid to a concentration of 0.5%. A reaction aliquot of 10 μL was then spotted onto a P30 filtermat and washed four times for 4 minutes in 0.425% phosphoric acid and once in methanol prior to drying and scintillation counting. Incorporated ^33P was measured using the Wallac Microbeta scintillation counter (Perkin Elmer).
Example A-2: Human AXL (residues 464-885; CarnaBio, 1 ng/well) was also incubated with enzymatic buffer (Cisbio) supplemented with 5 mM MgCl2, 1 mM DTT, and Supplemental Enzymatic Buffer (SEB; Cisbio). The mixture was added to the pre-plated compounds. The reaction was initiated upon addition of ATP at Km (1.0 μM). The reaction was incubated at room temperature for 50 min and stopped upon the addition of SA-XL665 and TK-antibody both diluted in EDTA-containing kinase detection buffer (Cisbio). The kinase activity was calculated as stated above and the IC50 values were reported.

Compound	IC50 [1]	IC50 [2]
COc1cc2nccc(Oc3ccc(NC(=O)c4cn(CCF)c(C)c(C5=CCCC5)c4=O)cc3F)c2nc1OC [Compound 11, 5-(Cyclopenten-1-yl)-N-[4-[(6,7-dimethoxy-1,5-naphthyridin-4-yl)oxy]-3-fluorophenyl]-1-(2-fluoroethyl)-6-methyl-4-oxopyridine-3-carboxamide]	≤ 100 nM	≤ 100 nM
COc1cnc2c(Oc3ccc(NC(=O)c4cn(C)c(C)c(C5=CCOCC5)c4=O)cc3F)ccnc2c1 [Compound 12, 5-(3,6-Dihydro-2H-pyran-4-yl)-N-[3-fluoro-4-[(7-methoxy-1,5-naphthyridin-4-yl)oxy]phenyl]-1,6-dimethyl-4-oxopyridine-3-carboxamide]	> 300 nM	≤ 100 nM
COc1cc2nccc(Oc3ccc(NC(=O)c4cn(CCF)c(C)c(C5CCCC5)c4=O)cc3F)c2nc1OC [Compound 13, 5-Cyclopentyl-N-[4-[(6,7-dimethoxy-1,5-naphthyridin-4-yl)oxy]-3-fluorophenyl]-1-(2-fluoroethyl)-6-methyl-4-oxopyridine-3-carboxamide]	≤ 100 nM	≤ 100 nM
COc1cc2nccc(Oc3ccc(NC(=O)c4c(C)cc(C)n(C5=CCCC5)c4=O)cc3F)c2nc1OC [Compound 14, 1-(Cyclopenten-1-yl)-N-[4-[(6,7-dimethoxy-1,5-naphthyridin-4-yl)oxy]-3-fluorophenyl]-4,6-dimethyl-2-oxopyridine-3-carboxamide]	≤ 100 nM	≤ 100 nM
COc1cc2nccc(Oc3ccc(NC(=O)c4c(C)cc(C)n(C5CCCC5)c4=O)cc3F)c2nc1OC [Compound 15, 1-Cyclopentyl-N-[4-[(6,7-dimethoxy-1,5-naphthyridin-4-yl)oxy]-3-fluorophenyl]-4,6-dimethyl-2-oxopyridine-3-carboxamide]	≤ 100 nM	≤ 100 nM
COc1cc2nccc(Oc3ccc(NC(=O)c4cnc(C)c(C5=CCCC5)c4O)cc3)c2cc1OC [Compound 16, 5-(Cyclopenten-1-yl)-N-[4-(6,7-dimethoxyquinolin-4-yl)oxyphenyl]-4-hydroxy-6-methylpyridine-3-carboxamide]	≤ 100 nM	≤ 100 nM
COc1cc2nccc(Oc3ccc(NC(=O)c4cnc(C)c(C5=CCOCC5)c4O)cc3)c2cc1OC [Compound 17, 5-(3,6-Dihydro-2H-pyran-4-yl)-N-[4-(6,7-dimethoxyquinolin-4-yl)oxyphenyl]-4-hydroxy-6-methylpyridine-3-carboxamide]	≤ 100 nM	≤ 100 nM
COc1cc2nccc(Oc3ccc(NC(=O)c4cnc(C)c(C5=CCCC5)c4O)cc3F)c2cc1OC [Compound 18, 5-(Cyclopenten-1-yl)-N-[4-(6,7-dimethoxyquinolin-4-yl)oxy-3-fluorophenyl]-4-hydroxy-6-methylpyridine-3-carboxamide]	≤ 100 nM	≤ 100 nM
COc1cc2nccc(Oc3ccc(NC(=O)c4cnc(C)c(C5=CCOCC5)c4O)cc3F)c2cc1OC [Compound 19, 5-(3,6-Dihydro-2H-pyran-4-yl)-N-[4-(6,7-dimethoxyquinolin-4-yl)oxy-3-fluorophenyl]-4-hydroxy-6-methylpyridine-3-carboxamide]	≤ 100 nM	≤ 100 nM
C=C(C)n1c(C)cc(C)c(C(=O)Nc2ccc(Oc3ccnc4cc(OC)c(OC)nc34)c(F)c2)c1=O [Compound 20, N-[4-[(6,7-Dimethoxy-1,5-naphthyridin-4-yl)oxy]-3-fluorophenyl]-4,6-dimethyl-2-oxo-1-prop-1-en-2-ylpyridine-3-carboxamide]	≤ 100 nM	≤ 100 nM
C=C(C)n1c(C)cc(C)c(C(=O)Nc2ccc(Oc3ccnc4cc(OC)cnc34)c(F)c2)c1=O [Compound 21, N-[3-Fluoro-4-[(7-methoxy-1,5-naphthyridin-4-yl)oxy]phenyl]-4,6-dimethyl-2-oxo-1-prop-1-en-2-ylpyridine-3-carboxamide]	100 to 300 nM	> 300 nM
COc1cc2nccc(Oc3ccc(NC(=O)c4c(C)c(Br)c(C)n(C5CCCC5)c4=O)cc3F)c2nc1OC [Compound 22, 5-Bromo-1-cyclopentyl-N-[4-[(6,7-dimethoxy-1,5-naphthyridin-4-yl)oxy]-3-fluorophenyl]-4,6-dimethyl-2-oxopyridine-3-carboxamide]	100 to 300 nM	≤ 100 nM
COc1cc2nccc(Oc3ccc(NC(=O)c4cnc(C)c(C5=CCCCC5)c4O)cc3F)c2cc1OC [Compound 23, 5-(Cyclohexen-1-yl)-N-[4-(6,7-dimethoxyquinolin-4-yl)oxy-3-fluorophenyl]-4-hydroxy-6-methylpyridine-3-carboxamide]	≤ 100 nM	≤ 100 nM
COc1cc2nccc(Oc3ccc(NC(=O)c4cnc(C)c(C5=CCCCC5)c4O)cc3)c2cc1OC [Compound 24, 5-(Cyclohexen-1-yl)-N-[4-(6,7-dimethoxyquinolin-4-yl)oxyphenyl]-4-hydroxy-6-methylpyridine-3-carboxamide]	≤ 100 nM	≤ 100 nM
COc1cc2nccc(Oc3ccc(NC(=O)c4cnc(C)c(/C=C/C5CCCC5)c4O)cc3F)c2nc1OC [Compound 25, 5-[(E)-2-Cyclopentylethenyl]-N-[4-[(6,7-dimethoxy-1,5-naphthyridin-4-yl)oxy]-3-fluorophenyl]-4-hydroxy-6-methylpyridine-3-carboxamide]	≤ 100 nM	≤ 100 nM
COc1cc2nccc(Oc3ccc(NC(=O)c4cnc(C)c(/C=C/C5CC5)c4O)cc3F)c2nc1OC [Compound 26, 5-[(E)-2-Cyclopropylethenyl]-N-[4-[(6,7-dimethoxy-1,5-naphthyridin-4-yl)oxy]-3-fluorophenyl]-4-hydroxy-6-methylpyridine-3-carboxamide]	≤ 100 nM	≤ 100 nM
COc1cc2nccc(Oc3ccc(NC(=O)c4cnc(C)c(/C=C/C(C)(C)C)c4O)cc3F)c2nc1OC [Compound 27, N-[4-[(6,7-Dimethoxy-1,5-naphthyridin-4-yl)oxy]-3-fluorophenyl]-5-[(E)-3,3-dimethylbut-1-enyl]-4-hydroxy-6-methylpyridine-3-carboxamide]	≤ 100 nM	≤ 100 nM
